Laboratory results from PMC5321741, “Arylmethylamino steroids as antiparasitic agents” (Nature Communications, 2017).
Where two headings read alike, the source gives them in different places.

Experiments:
HeLa = assay: cytotoxicity on HeLa cells; type: cell-based; details: 72 h
Protocol: (§1) Compounds were tested for their antiproliferative activity on HUVEC and K-562 cells and for cytotoxicity on HeLa cells using standard protocols. K-562 (DSM ACC 10), HUVEC (ATCC CRL-1730), and HeLa (DSM ACC 57) cells were cultured as described previously. To assay the antiproliferative and cytotoxic effect, procedures were carried out as described before. In brief, for each experiment with K-562 and HeLa ∼10,000 cells were seeded per well of the 96-well microplates. For the cytotoxicity assay, the HeLa cells were preincubated for 48 h without the test substances. Cells were incubated for 72 h at 37 °C in a humidified atmosphere and 5% CO2. Suspension cultures of K-562 in microplates were analysed by an electronic cell analyzer system CASY 1 (SCHÄRFE, Reutlingen, Germany). The monolayer of the HUVEC and HeLa cells were fixed by glutaraldehyde (MERCK) and stained with a 0.05% solution of methylene blue (SERVA). After gently washing, the stain was eluted by 0.2 ml of 0.33 N HCl in the wells. The optical densities were measured at 660 nm in a microplate reader. The calculations of the different values of GI50 and CC50 were performed with the software Magellan (TECAN).

[1] = test system: P. falciparum (strain 3D7); assay: 72 h 3H-hypoxanthine incorporation assay, asexual blood stages; type: cell-based, Plasmodium falciparum; details: 72 h 3H-hypoxanthine incorporation, asexual blood stages; read-out: Antiplasmodial activity IC50 Pf (3D7)
HUVEC = assay: antiproliferative activity on HUVEC cells; type: cell-based; details: 72 h
Protocol: as §1

K-562 = assay: antiproliferative activity on K-562 cells; type: cell-based; details: 72 h
Protocol: as §1

[2] = test system: Pseudomonas aeruginosa JMRC:ST:33772; assay: agar diffusion inhibition zone test; type: cell-based; details: Pseudomonas aeruginosa; 1o, 2o 1,000 µg/ml in DMSO; ciprofloxacin 5 µg/ml; solvent DMSO 13P; read-out: inhibition zone diameter, Pseudomonas aeruginosa JMRC:ST:33772 (B7)
Protocol: (§2) The following organisms were tested at the Hans Knöll Institute in Jena, for their susceptibility to the compounds 1o and 2o: Bacillus subtilis JMRC:STI:10880, Staphylococcus aureus JMRC:ST:10760, Escherichia coli JMRC:ST:33699, Pseudomonas aeruginosa JMRC:ST:33772, Pseudomonas aeruginosa JMRC:ST:337721, Staphylococcus aureus JMRC:ST:33793 (multi-resistant), Enterococcus faecalis JMRC:ST:33700 (Vancomycin-resistant), Mycobacterium vaccae JMRC:STI:10670, Sporobolomyces salmonicolor (Basidiomycetes yeast) JMRC:ST:35974, Candida albicans (Ascomycetes yeast) JMRC:STI:25000, Penicillium notatum JMRC:STI:50164.
(§3) The bacteria were propagated in Mueller Hinton Broth (Oxoid)[49]. Yeast was propagated in YPD (yeast extract peptone dextrose): 1% yeast extract, 10 g; 2% peptone, 20 g; 2% agar, 20 g; 2% dextrose (glucose), 20 g; Sigma-Y1375. All bacteria and yeast suspensions were freshly made. The cultures were incubated at 37 °C for 16 h. Afterwards, the bacteria concentration from each culture was determined, and 34 ml of nutrient agar was loaded with 10^7 cells. These cultures were stored at 6-8 °C and could be used for seven days for the preparation of test plates. 34 ml of nutrient agar was liquefied and inoculated with the calculated amount of inoculum bacteria suspension at 48–50 °C, a temperature suitable for vegetative forms of bacteria. The inoculated nutrient media (34 ml each) were immediately poured into the prepared test plates (3 mm layer). With a punching device, 12 holes per test plate were punched out. For inhibiting bacterial growth, ciprofloxacin was used as a reference substance. The test substances were dissolved in distilled water, and 5 μg ml^−1 and 50 μl was added to each bacterial culture. For inhibition of fungal growth, amphotericin B served as the reference substance. The test substances were diluted to 10 μg ml^−1 in DMSO/methanol; 50 μl was added to each culture.
(§4) Configuring the test plate; volumes/punched hole: 50 μl; test solutions/test plate: 1 × 50 μl reference substance. Test plates were cultivated for 18 h at 37 °C. Analysis: Reading the inhibition zones (IZ): As IZ, the zone in which no growth can be determined with the naked eye is measured; the tiniest colonies on the edge of the inhibition zone were therefore not taken into consideration. The diameter (φ) of the IZ is measured in mm. The analysis of IZ φ is carried out internationally with the help of statistic procedures, especially regression analysis. With each test approach, the reference substance was brought along as a control; if there were deviations from allowed IZ φ, the test was repeated.
(§5) The inhibition of bacterial growth was determined using bacterial cultures grown in Müller-Hinton Bouillon, which was configured at barely visible opacity with the McFarland Standard Nr. 0.5, which indicates a bacterial density of 10^8 ml^−1. This bacterial suspension was diluted with Müller-Hinton Bouillon using 2-fold dilution series in the agar diffusion test.
(§6) Analysis: The growth in the inhibition zones around the holes containing active substances is thereby compared with the growth in the growth control (no active substance). Bacterial growth was determined according to four measurements: p=presence of colonies in the inhibition zone, P=presence of many colonies in the inhibition zone, A=indication of inhibition, F=facilitation.

[3] = test system: Mycobacterium vaccae JMRC:STI:10670; assay: agar diffusion inhibition zone test; type: cell-based; details: Mycolicibacterium vaccae; 1o, 2o 1,000 µg/ml in DMSO; ciprofloxacin 5 µg/ml; solvent DMSO 13P; read-out: inhibition zone diameter, Mycobac. vaccae (M4)
Protocol: as §2, §3, §4, §5, §6

[4] = test system: Bacillus subtilis JMRC:STI:10880; assay: agar diffusion inhibition zone test; type: cell-based; details: Bacillus subtilis; 1o, 2o 1,000 µg/ml in DMSO; ciprofloxacin 5 µg/ml; solvent DMSO 12P; read-out: inhibition zone diameter, Bacillus subtilis (B1)
Protocol: as §2, §3, §4, §5, §6

[5] = test system: Staphylococcus aureus JMRC:ST:10760; assay: agar diffusion inhibition zone test; type: cell-based; details: Staphylococcus aureus; 1o, 2o 1,000 µg/ml in DMSO; ciprofloxacin 5 µg/ml; solvent DMSO 12P; read-out: inhibition zone diameter, Staphylococcus aureus (B3)
Protocol: as §2, §3, §4, §5, §6

[6] = test system: Staphylococcus aureus JMRC:ST:33793 (multi-resistant); assay: agar diffusion inhibition zone test; type: cell-based; details: Staphylococcus aureus, MRSA; 1o, 2o 1,000 µg/ml in DMSO; ciprofloxacin 5 µg/ml; solvent DMSO 12P; read-out: inhibition zone diameter, MRSA Staph. aureus (R9)
Protocol: as §2, §3, §4, §5, §6

[7] = test system: Enterococcus faecalis JMRC:ST:33700 (Vancomycin-resistant); assay: agar diffusion inhibition zone test; type: cell-based; details: 1o, 2o 1,000 µg/ml in DMSO; ciprofloxacin 5 µg/ml; solvent DMSO 12P
Protocol: as §2, §3, §4, §5, §6

P. falciparum strain Dd2 = test system: P. falciparum strain Dd2; design: method as in PMID 24348249; details: chloroquine-resistant strain Dd2; cited from earlier work
[8] = test system: P. falciparum (strain 3D7); details: same methods (72 h 3H-hypoxanthine incorporation assay); read-out: IC50 on 3D7; cited from earlier work
haem = assay: ESI-MS collision-induced dissociation of haem adducts; type: binding; details: 50 µM haem and 50 µM substrate
Protocol: Compound Molar Adduct DV50 Bottom Dissociation mass [Haem+S] (V) plateau Constant
Supplementary Table 7. ESI-MS-CID data (m/z, calculated DV50 = dissociation voltage at 50% and % bottom plateau) of the [haematin-drug]+ adducts and dissociation constants (KD, µM) of the haematin-drug complexes measured with absorption spectrophotometric titrations.
Conditions: 50 µM haem and 50 µM substrate in H2O/CH3CN (5/95) + 0.1% formic acid.
Stability responses of the haem substrate adduct were obtained via ESI-CID experiments.
Positive mode; fragmentor voltage from 20 V to 400 V with 20 V increments. […]
- 41/120 g), and complete dissolution was achieved using an ultrasonic bath. All solutions were protected from daylight to avoid any photochemical degradation. All the physiochemical measurements were carried out at 25.0(2) °C. […]
Electrospray mass spectrometric measurements stopping point
Electrospray mass spectra of the haem complexes were obtained with an Agilent Technologies 6120 quadrupole equipped with an electrospray (ESI) interface. For

[9] = biological target: haem (FeIIIPPIX, π-π dimer); assay: spectrophotometric titration of haematin π-π dimer; type: binding; details: absorption spectrophotometric titration, pH 7.5; read-out: Dissociation Constant KD of haematin-drug complex
P. falciparum NF54 = assay: IC50 speed assay; type: cell-based, Plasmodium falciparum; details: Plasmodium falciparum
Protocol: To assess the rapidity of growth inhibition induced by the steroid compounds, the so-called IC50 speed assay[16] was conducted for compound 1o on P. falciparum NF54 (Fig. 2a,b).

[10] = test system: P. berghei asexual stages; assay: ex vivo drug assay (luciferase), asexual stages; type: cell-based; details: Plasmodium berghei; 24 h incubation, n=3; read-out: IC50 against P. berghei ex vivo
Protocol: Plates frozen at −80 °C were thawed at 37 °C. The cells were lysed at room temperature in 10 μl 1x luciferin lysis buffer (Luciferase Cell Culture Lysis 5 × reagent, Promega), and 100 μl luciferase assay substrate was added to each well (Luciferase Assay System, Promega). Luciferase activity was measured on a luminescence plate reader (Mithras LB940 luminometer, Berthold Technologies). The mean of the luciferase activity was calculated for each technical triplicate and normalized as follows: (Lucx−LucRBC)/(Lucsolvent−LucRBC) with Lucx and Lucsolvent=mean luciferase activity for parasites incubated with compound x and with solvent (DMSO for 1o and PBS for MB), respectively, and LucRBC=mean luciferase activity of non-infected red blood cells (background). IC50 values were calculated using Prism (GraphPad, log(inhibitor) versus normalized response—variable slope) in three independent experiments for the P. falciparum gametocyte assay and five for the P. berghei ex vivo drug assay.
The animal experiments described in this part were performed at the Institut de Biologie Moléculaire et Cellulaire (Strasbourg, France), using facilities and protocols adhering to national regulations of laboratory animal welfare in France. […] Parasitaemia was monitored via FACS analysis (FACSCalibur, BD Bioscience). […]

CC(C)CCCC(C)C1CCC2C3CCC4CC(O)C(NCc5ccccc5O)CC4(C)C3CCC12C (stereo not shown) [13c]
CC50 (HeLa): 85300 nM
IC50 [1]: 465 nM
GI50 (HUVEC): 23700 nM
GI50 (K-562): 17700 nM

CC(C)CCCC(C)C1CCC2C3CCC4CC(O)C(NCc5ccccc5O)CC4(C)C3CCC12C (stereo not shown) [14c]
CC50 (HeLa): 21800 nM
IC50 [1]: 208 nM
GI50 (HUVEC): 6700 nM
GI50 (K-562): 8200 nM

O=C(O)c1cn(C2CC2)c2cc(N3CCNCC3)c(F)cc2c1=O [Ciprofloxacin, ciprofloxacin, reference compound]
zone of inhibition at 5 µg/mL [2]: 27 mm
zone of inhibition at 5 µg/mL [3]: 21 mm
zone of inhibition at 5 µg/mL [4]: 31 mm
zone of inhibition at 5 µg/mL [5]: 19 mm
zone of inhibition at 5 µg/mL [6]: 0 mm
inhibition zone diameter, VRSA Enteroc. faecalis (R10) [7]: 16 mm

C[C@@H]1CC[C@H]2[C@@H](C)C(=O)O[C@@H]3O[C@@]4(C)CC[C@@H]1[C@]32OO4 [artemisinin]
IC50 (P. falciparum strain Dd2): 20.4 nM
IC50 [8]: 17.3 nM

CCN(CC)CCCC(C)Nc1ccnc2cc(Cl)ccc12 (stereo not shown) [chloroquine]
DV50 (dissociation voltage at 50%) of haem adduct (haem; ESI-CID, 20 V to 400 V): 201 V
Bottom plateau (adduct remaining at 400 V) (haem; fragmentor voltage 400 V): 0%
Kd [9]: 1300 nM
IC50 (P. falciparum strain Dd2): 90.2 nM
IC50 (P. falciparum NF54; NF54, 24 h, read-out: IC50 24 h): 8.3 ± 2.1 nM
IC50 (P. falciparum NF54; NF54, 48 h, read-out: IC50 48 h): 7.5 ± 0.9 nM
IC50 (P. falciparum NF54; NF54, 72 h, read-out: IC50 72 h): 7.4 ± 1.1 nM
IC50 [8]: 8.6 nM

CN(C)c1ccc2nc3ccc(=[N+](C)C)cc-3sc2c1 [methylene blue, reference compound]
IC50 [10]: 2.6 ± 1.2 nM
